US20210145838A1, “SELECTIVE PDE4D INHIBITORS AGAINST DEMYELINATING DISEASES” (Universiteit Hasselt, priority 2018, published 2021)

Legend:
[1] = tested on: cuprizone demyelinated mice; assay: In vivo remyelination in cuprizone-demyelinated mice (MBP IHC, mbp qPCR, TEM G ratio); parameters: species or system mouse
Excerpt: (§1) FIG. 8: MBP expression in the corpus callosum upon PDE4 inhibition. A) IHC; B no IHC. Forty-two eleven-weeks-old male C57bl6 mice were either subjected to a cuprizone treatment to induce demyelination (n=32) or left without treatment (control; n=10) for six weeks (day 0-42). From day 40 till day 49, the control mice and part of the cuprizone-treated mice (vehicle; n=10) received a vehicle treatment, receiving a s.c. injection with a 1% DMSO in 0.5% methylcellulose solution twice a day. The remaining cuprizone-treated mice received a roflumilast treatment (roflu 1 mg/kg (n=11) or roflu 3 mg/kg (n=11) in vehicle) twice a day from day 40-49. All animals were sacrificed at day 49. Brains were isolated at anteroposterior coordinates from −0.3 to −1.5 mm was cut in the midsagittal plane and used for slicing and immunohistochemistry (IHC) against MBP.
as §1, with “9:” for “8:”, “hippocampus” for “corpus callosum”, “inhibition.” for “inhibition. A) IHC; B no IHC.”, “immunohistochemistry” for “immunohistochemistry (IHC)”
FIG. 10: MBP expression in the corpus callosum upon PDE4 inhibition. C57bl6 mice were either subjected to a cuprizone treatment to induce demyelination or left without treatment for six weeks (day 0-42). From day 40 till day 49, the control mice and part of the cuprizone-treated mice received a vehicle treatment, receiving a s.c. injection with a 1% DMSO in 0.5% methylcellulose solution twice a day. The remaining cuprizone-treated mice received a roflumilast treatment (roflu 1 mg/kg or roflu 3 mg/kg in vehicle) twice a day from day 40-49. All animals were sacrificed at day 49. The left part of the corpus callosum at bregma Y-Z was used for TEM and subsequent G ratio measurement. G ratio is the ratio of the inner axonal diameter to the total outer diameter representing myelination of axons (e.g. a higher G ratio represents a demyelination). […] Data are expressed as mean±SEM with. (*p<0.05, **p<0.01, ***p<0.001). Control (n=5), vehicle (n=5), roflu 1 mg/kg (n=7), and roflu 3 mg/kg (n=9).
FIG. 12: MBP expression in the corpus callosum upon PDE4 inhibition. Thirty-six eleven-weeks-old male C57bl6 mice were either subjected to a cuprizone treatment to induce demyelination (n=27) or left without treatment (control; n=9) for six weeks (day 0-42). From day 40 till day 49, the control mice and part of the cuprizone-treated mice (vehicle; n=9) received a vehicle treatment, receiving a s.c. injection with a 1% DMSO in 0.5% methylcellulose solution twice a day. The remaining cuprizone-treated mice received a gebr32a treatment (gebr32a 0.1 mg/kg (n=9) or gebr32a 0.3 mg/kg (n=9) in vehicle) twice a day from day 40-49. All animals were sacrificed at day 49. Brains were isolated at anteroposterior coordinates from −0.3 to −1.5 mm was cut in the midsagittal plane and used for slicing and immunohistochemistry against MBP.
FIG. 13. MBP expression in the dendate gyrus upon PDE4D inhibition. Thirty-six eleven-weeks-old male C57bl6 mice were either subjected to a cuprizone treatment to induce demyelination (n=27) or left without treatment (control; n=9) for six weeks (day 0-42). From 20 day 40 till day 49, the control mice and part of the cuprizone-treated mice (vehicle; n=9) received a vehicle treatment, receiving a s.c. injection with a 1% DMSO in 0.5% methylcellulose solution twice a day. […]

[2] = Emetic side-effects at the remyelination-inducing dose; format: in vivo
[3] = tested on: primary rat Schwann cells; assay: Differentiation of primary rat Schwann cells; format: cell-based; conditions: Roflumilast 5 or 10 μM, BPN14770 1 or 5 μM
Description: FIG. 16: Inhibition of PDE4 by roflumilast and PDE4D by BPN induces differentiation of primary rat schwann cells. Primary rat schwann cells were isolated from p3 Wistar rats. Primary rat schwann cells were cultured onto an aligned network of electrospinned fibers and stimulated with vehicle (0.1% DMSO), the PDE4 inhibitor Roflumilast (5 μM or 10 μM) or the PDE4D inhibitor BPN (1 μM or 5 μM), both dissolved in 0.1% DMSO. Cells were fixated (IHC) or lysated (WB and qPCR) at day 14.
A: Primary rat schwann cells were stained for MBP (red) and MAG (green), both markers for Schwann cells differentiation (100.000 cells).
B: MBP and β-actin protein expression of primary rat schwann cells was analyzed using western blot (500.000 cells)
C: qPCR was conducted to evaluate changes in mRNA expression of MBP, PLP, MAG and SOX10. The expression of all these genes was increased upon PDE4 or PDE4D inhibition.
Primary rat Schwann cells were isolated from p3 Wistar rats. […] MBP and β-actin protein expression was analyzed using western blot analysis on primary rat Schwann cells (500.000 cells). […] Data were analyzed using a one-way ANOVA with Dunnett's multiple comparison test (compared to control); *p<0.05, **p<0.01, ***p<0.001. qPCR was conducted to evaluate changes in mRNA expression of MBP, PLP, MAG and SOX10.

[4] = 0.1 mg/kg s.c. twice a day, day 40-49
[5] = 0.3 mg/kg s.c. twice a day, day 40-49, vs vehicle treated mice
[6] = 3 mg/kg s.c. twice a day, day 40-49
[7] = 3 mg/kg s.c. twice a day, day 40-49, vs vehicle-treated cuprizone mice

Row | SMILES | MBP expression in the corpus callosum (IHC) [1, 4] | MBP expression in the dendate gyrus (IHC) [1, 4] | MBP expression in the corpus callosum (IHC) [1, 5] | MBP expression in the dendate gyrus (IHC) [1, 5] | Remyelination-inducing dosage compared to roflumilast treatment ([1]; lower dosage, 0.3 mg/kg vs 3 mg/kg) [fold] | Emetic side-effects [2] | MBP and MAG protein expression (IHC) ([3]; day 14) | mRNA expression of MBP, MAG, PLP and SOX10 (qPCR) ([3]; vs control conditions) | Relative mbp gene expression in the corpus callosum (qPCR) ([1]; 1 mg/kg and 3 mg/kg s.c. twice a day, day 40-49) | G ratio in the corpus callosum (TEM) ([1]; 1 mg/kg s.c. twice a day, day 40-49) | mbp mRNA expression in the corpus callosum (qPCR) compared to the control ([1]; 1 mg/kg s.c. twice a day, vs non-demyelinated control) | G ratio in the corpus callosum (TEM) [1, 6] | MBP expression in hippocampus CA1 and CA3 (IHC) [1, 6] | MBP expression in the corpus callosum (IHC) [1, 7] | MBP expression in the dendate gyrus (IHC) [1, 7]
1 | OC(CN1CCOCC1)Cn1ccc(-c2ccc(OC(F)F)c(OC3CCCC3)c2)n1 (stereo not drawn) [Gebr32a] | not sufficient to significantly improve MPB expression | not sufficient to significantly improve MPB expression | significantly increased MBP expression | significantly increased MBP expression | 10 | – | – | – | – | – | – | – | – | – | –
2 | O=C(Nc1c(Cl)cncc1Cl)c1ccc(OC(F)F)c(OCC2CC2)c1 [roflumilast] | – | – | – | – | – | displayed emetic side-effects | increases dose-dependently | increased | not altered | re-establishment of the G ratio to control levels | reduced mbp mRNA expression | re-establishment of the G ratio to control levels | not in the cornu amonis 1 (CA1) or 3 (CA3) | increased MBP expression | increased MBP expression
